Measured values: article PMC10657973 (Journal of Pharmaceutical Analysis, 2023)
Structures can show the parent of a compound that is named as a salt. Values belong to the molecule of their own block, whether it stands above or below them.

Tests used:
OAT3 = target: T1, OAT3 (Homo sapiens, UniProt Q8TCC7); experiment: Uptake of UTs in HEK293T-OAT3 cells; format: cell-based; settings: 100 μM, 30 min, 37 °C; for uptake of free UT in OAT3-overexpressing cells vs control cells: without HSA; for uptake of HSA-bound UT in OAT3-overexpressing cells vs control cells: with HSA
T1 sequence (Q8TCC7 1-542): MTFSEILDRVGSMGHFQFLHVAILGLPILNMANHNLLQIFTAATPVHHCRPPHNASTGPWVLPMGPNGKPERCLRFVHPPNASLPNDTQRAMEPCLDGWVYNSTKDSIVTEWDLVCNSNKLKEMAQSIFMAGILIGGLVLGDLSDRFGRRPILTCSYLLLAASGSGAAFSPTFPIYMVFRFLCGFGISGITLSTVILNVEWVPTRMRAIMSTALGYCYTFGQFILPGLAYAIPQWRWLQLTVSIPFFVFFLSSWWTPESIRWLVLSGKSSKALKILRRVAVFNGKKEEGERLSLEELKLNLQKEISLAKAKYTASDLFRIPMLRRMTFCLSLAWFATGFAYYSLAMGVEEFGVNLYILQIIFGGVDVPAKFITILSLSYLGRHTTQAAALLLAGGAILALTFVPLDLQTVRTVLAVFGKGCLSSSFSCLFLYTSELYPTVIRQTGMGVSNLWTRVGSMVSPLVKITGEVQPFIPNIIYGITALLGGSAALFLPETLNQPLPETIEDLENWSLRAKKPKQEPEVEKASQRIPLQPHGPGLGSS

serum protein = experiment: Protein-binding ratio of UTs in rat serum; format: in vitro ADME, rats; settings: ultrafiltration at 37 °C
OAT1 = target: T2, OAT1 (Homo sapiens, UniProt Q4U2R8); experiment: Uptake of UTs in HEK293T-OAT1 cells; format: cell-based; settings: 100 μM, 30 min, 37 °C; for uptake of HSA-bound UT in OAT1-overexpressing cells vs control cells: with HSA; for uptake of free UT in OAT1-overexpressing cells vs control cells: without HSA
T2 sequence (Q4U2R8 1-563): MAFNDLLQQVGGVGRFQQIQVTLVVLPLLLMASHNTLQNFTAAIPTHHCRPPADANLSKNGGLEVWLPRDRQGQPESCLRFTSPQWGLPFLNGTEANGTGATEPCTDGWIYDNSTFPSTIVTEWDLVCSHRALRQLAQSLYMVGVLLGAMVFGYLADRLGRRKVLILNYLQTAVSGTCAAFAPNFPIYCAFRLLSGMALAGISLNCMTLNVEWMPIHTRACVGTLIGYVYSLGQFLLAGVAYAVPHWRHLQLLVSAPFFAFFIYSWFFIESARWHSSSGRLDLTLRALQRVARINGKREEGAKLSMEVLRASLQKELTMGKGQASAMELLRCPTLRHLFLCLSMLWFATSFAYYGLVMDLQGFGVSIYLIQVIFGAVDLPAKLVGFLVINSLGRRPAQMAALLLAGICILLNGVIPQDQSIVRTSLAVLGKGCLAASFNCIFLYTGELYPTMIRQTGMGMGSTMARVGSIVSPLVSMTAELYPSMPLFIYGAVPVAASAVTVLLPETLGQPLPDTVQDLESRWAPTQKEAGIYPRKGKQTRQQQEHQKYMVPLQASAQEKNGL

MRP4 = experiment: Intracellular accumulation of UTs in MRP4-overexpressing cells; format: cell-based, human; settings: 100 μM, 30 min, 37 °C, 4 mM ATP
rOATs = rOATs inhibition experiment; settings: rats, H&E staining
[1] = format: in vivo, rats; settings: rats; for renal excretion with MK-571 vs control: MK-571 20 mg/kg; for renal excretion with PROB vs control: PROB 60 mg/kg; for Renal clearance half-life (t1/2), Control: 2 mg/kg i.v., urine 0-12 h

Molecule: Cn1cnc2c(ncn2[C@@H]2O[C@H](CO)[C@@H](O)[C@H]2O)c1=O [1-methyl-inosine]
uptake of free UT in OAT3-overexpressing cells vs control cells (OAT3): significantly higher

Molecule: N[C@@H](Cc1ccc(O)c(O)c1)C(=O)O [3-(3,4-dihydroxyphenyl)-L-alanine]
Protein-binding ratio, Normal rats in vivo (%) (n = 6) (serum protein): < 70%

Molecule: O=S(=O)(O)Oc1c[nH]c2ccccc12 [3-indoxyl sulfate]
uptake of HSA-bound UT in OAT3-overexpressing cells vs control cells (OAT3): no significant change
uptake of free UT in OAT3-overexpressing cells vs control cells (OAT3): substantially elevated

Molecule: OC[C@H]1O[C@@H](Oc2c[nH]c3ccccc23)[C@H](O)[C@@H](O)[C@@H]1O [3-indoxyl-β-D-glucopyranoside]
Protein-binding ratio, Normal rats in vivo (%) (n = 6) (serum protein): > 90%
uptake of HSA-bound UT in OAT3-overexpressing cells vs control cells (OAT3): markedly increased
uptake of free UT in OAT3-overexpressing cells vs control cells (OAT3): markedly increased

Molecule: CCc1ccc(OS(=O)(=O)[O-])cc1.[K+] [4-ethylphenyl sulfate]
Protein-binding ratio, Normal rats in vivo (%) (n = 6) (serum protein): > 90%
uptake of HSA-bound UT in OAT1-overexpressing cells vs control cells (OAT1): no significant change
uptake of free UT in OAT1-overexpressing cells vs control cells (OAT1): substantially elevated
uptake of HSA-bound UT in OAT3-overexpressing cells vs control cells (OAT3): no significant change
uptake of free UT in OAT3-overexpressing cells vs control cells (OAT3): substantially elevated

Molecule: Nc1ccccc1C(=O)C[C@@H](N)C(=O)O [D-kynurenine]
Protein-binding ratio, Normal rats in vivo (%) (n = 6) (serum protein): > 90%
uptake of HSA-bound UT in OAT1-overexpressing cells vs control cells (OAT1): markedly increased
uptake of free UT in OAT1-overexpressing cells vs control cells (OAT1): markedly increased

Molecule: O=C(O)Cc1c[nH]c2ccccc12 [Indole-3-acetic acid, indole-3-acetic acid]
uptake of HSA-bound UT in OAT1-overexpressing cells vs control cells (OAT1): significantly increased
uptake of free UT in OAT1-overexpressing cells vs control cells (OAT1): significantly increased

Molecule: NCCCC[C@H](NCC(=O)O)C(=O)O [N-(1-carboxymethyl)-L-lysine]
Protein-binding ratio, Normal rats in vivo (%) (n = 6) (serum protein): < 70%

Molecule: Cc1ccc(OS(=O)(=O)O)cc1 [p-cresol sulfate]
Protein-binding ratio, Normal rats in vivo (%) (n = 6) (serum protein): > 90%
uptake of HSA-bound UT in OAT1-overexpressing cells vs control cells (OAT1): significantly increased
uptake of free UT in OAT1-overexpressing cells vs control cells (OAT1): significantly increased
uptake of free UT in OAT3-overexpressing cells vs control cells (OAT3): significantly increased

Second part, the molecule after the results:

intracellular accumulation in MRP4-overexpressing cells vs control cells (MRP4): significantly decreased
Molecule: CC(=O)N[C@@H](CCCN=C(N)N)C(=O)O [N-acetyl-L-arginine]

uptake of free UT in OAT1-overexpressing cells vs control cells (OAT1): significantly increased
uptake of free UT in OAT3-overexpressing cells vs control cells (OAT3): significantly increased
Molecule: CC(=O)Nc1ccn([C@@H]2O[C@H](CO)[C@@H](O)[C@H]2O)c(=O)n1 [N-acetylcytidine]

histological structure of kidney (rOATs): unchanged
Molecule: CCCN(CCC)S(=O)(=O)c1ccc(C(=O)O)cc1 [PROB, probenecid, reference compound]

Protein-binding ratio, Normal rats in vivo (%) (n = 6) (serum protein): < 70%
uptake of HSA-bound UT in OAT3-overexpressing cells vs control cells (OAT3): significantly increased
uptake of free UT in OAT3-overexpressing cells vs control cells (OAT3): significantly increased
Molecule: O=C(O)[C@H]1O[C@@H](Oc2ccccc2)[C@H](O)[C@@H](O)[C@@H]1O [Phenyl-β-D-glucuronide, phenyl-β-D-glucuronide]

renal excretion with MK-571 vs control [1]: reduce
renal excretion with PROB vs control [1]: reduce
Molecule: [2H]c1c([2H])c([2H])c2c(O)c([2H])c(C(=O)O)nc2c1O [d4-xanthurenic acid]

Renal clearance half-life (t1/2), Control [1]: 3.7 ± 0.7 h
Molecule: [2H]c1c([2H])c([2H])c2c(O)c([2H])c(C(=O)O)nc2c1[2H] [d5-kynurenic acid]

Protein-binding ratio, Normal rats in vivo (%) (n = 6) (serum protein): < 70%
uptake of HSA-bound UT in OAT3-overexpressing cells vs control cells (OAT3): markedly increased
uptake of free UT in OAT3-overexpressing cells vs control cells (OAT3): markedly increased
Molecule: Cc1ccc(O[C@@H]2O[C@H](C(=O)O)[C@@H](O)[C@H](O)[C@H]2O)cc1 [p-cresol glucuronide]

Renal clearance half-life (t1/2), Control [1]: 1.9 ± 0.3 h
renal excretion with MK-571 vs control [1]: did not affect
renal excretion with PROB vs control [1]: did not affect
Molecule: d3-CMPF
